In this assay the test system is transformant cell line 503LCA500D (derived from CHO/DG44) producing chimeric anti-CCR4 antibody. Briefly: Fed-batch culture of antibody-producing cells with Q10-containing feed medium (Example 3). The settings on record: for cumulative number of cells on the completion of culturing: Q10-free culture 3.94×10^7; for relative specific antibody production rate: Q10-free culture = 100%. The format is cell-based, Chinese hamster. How it is done:
Lens culinaris agglutinin (hereinafter abbreviated as LCA) resistant cell line CHO-LCA, which is derived from Chinese hamster ovary cell line CHO/DG44, was prepared by the method described in WO 02/31140, and chimeric anti-CCR4 antibody expression vector pCANTEX 2160 (WO 01/64754) was transfected into this cell line. Then, amethotrexate (MTX)-resistant cell was selected for gene amplification to obtain transformant cell line 503LCA500D (FERM BP-8239) producing chimeric anti-CCR4 antibody. The following fed-batch culture was performed using this cell line 503LCA500D. 503LCA500D was deposited as FERM BP-8239 in International Patent Organism Depositary, National Institute of Advanced Industrial Science and Technology (AIST Tsukuba Central 6, 1-1-1 Higashi, Tsukuba, Ibaraki, Japan) as of Nov. 20, 2002.
The cells were inoculated in a 250-mL conical flask containing 50 mL of a serum-free medium. (EX-CELL 302 medium, manufactured by JRH Biosciences) to a cell density of 3×10^5 cells/mL, followed by spinner culture at 100 rpm at 37° C.
In Q10-added cultures, 0.5 mL or 1 mL of a health drink SANOMIT (manufactured by MSE Pharmazeutica GmbH) comprising Q10, water, glycerin, ethanol and lecithin was added to 20 mL of an animal-protein-material-free feed medium comprising amino acids (0.22 g/L L-alanine, 0.74 g/L L-arginine monohydrochloride, 0.22 g/LL-asparagine (anhydrous), 0.26 g/L L-aspartic acid, 0.8 g/L L-cystine dihydrochloride, 0.66 g/L L-glutamic acid, 7.34 g/L L-glutamine, 0.26 g/L glycine, 0.37 g/L L-histidine monohydrochloride dihydrate, 0.92 g/L L-isoleucine, 0.92 g/L L-leucine, 1.29 g/L L-lysine monohydrochloride, 0.26 g/L L-methionine, 0.58 g/L L-phenylalanine, 0.35 g/L L-proline, 0.37 g/L L-serine, 0.84 g/L L-threonine, 0.14 g/L L-tryptophan, 0.92 g/L L-tyrosine disodium dihydrate, and 0.83 g/LL-valine), vitamins (0.11 mg/L d-biotin, 0.035 g/L calcium D-pantothenate, 0.035 g/L choline chloride, 0.035 g/L folic acid, 0.063 g/L myo-inositol, 0.035 g/L niacin amide, 0.035 g/L pyridoxal hydrochloride, 0.0035 g/L riboflavin, 0.035 g/L thiamine hydrochloride, and 0.00011 mg/L cyanocobalamine), 0.0251 g/L ethanolamine, 0.314 g/L insulin, 8 g/L soybean hydrolysate HY-SOY (manufactured by Quest International), 0.05 g/L ethylenediaminetetraacetic acid ferric sodium salt (manufactured by Sigma-Aldrich Co.), and 2 mL cholesterol lipid concentrate (1,000×aqueous solution, manufactured by Invitrogen Corp.). The concentrations of Q10 in the feed media after addition of SANOMIT were 1,563 μmol/L and 3,125 μmol/L respectively. […]

Results on one compound are retold here after patent publication US20050175599A1, “Process for producing substance” (Kyowa Hakko Kogyo Co., Ltd., priority 2001, published 2005).

Regarding `COC1=C(OC)C(=O)C(C/C=C(\C)CC/C=C(\C)CC/C=C(\C)CC/C=C(\C)CC/C=C(\C)CC/C=C(\C)CC/C=C(\C)CC/C=C(\C)CC/C=C(\C)CCC=C(C)C)=C(C)C1=O` [Q10], the “cumulative number of cells on the completion of culturing” value is 3.64×10^7 cells/mL×days (Q10-added culture 1, 121 to 393 μmol/L Q10 in the medium (SANOMIT in feed), fed-batch 13 days) and 2.00×10^7 cells/mL×days (Q10-added culture 2, 242 to 786 μmol/L Q10 in the medium (SANOMIT in feed), fed-batch 15 days). In addition, the “relative specific antibody production rate” value by setting is: (Q10-added culture 1, 121 to 393 μmol/L Q10 in the medium, fed-batch 13 days) 128.8%; (Q10-added culture 2, 242 to 786 μmol/L Q10 in the medium, fed-batch 15 days) 149.1%.
